Source: PubChem BioAssay (NCI)
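Test compounds were applied to cells in 96-well plates for 48 hours at 5 doses. At the GI50, growth is halved. At the TGI there is no net growth.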

Columns and labels:
Test in all cases: NCI-60 cell line screen, 48 h
SF-295 CNS = system: SF-295 CNS
SNB-75 CNS = system: SNB-75 CNS
KM12 colon = system: KM12 colon
SK-MEL-2 melanoma = system: SK-MEL-2 melanoma
HT29 colon = system: HT29 colon
OVCAR-8 ovarian = system: OVCAR-8 ovarian
A549 NSCLC = system: A549 NSCLC
RPMI-8226 leukemia = system: RPMI-8226 leukemia
EKVX NSCLC = system: EKVX NSCLC
NCI-H226 lung = system: NCI-H226 lung
MDA-MB-231 breast = system: MDA-MB-231 breast
NCI-H23 lung = system: NCI-H23 lung
OVCAR-3 ovarian = system: OVCAR-3 ovarian
MDA-MB-435 = system: MDA-MB-435
A498 renal = system: A498 renal
HOP-62 NSCLC = system: HOP-62 NSCLC
RXF 393 renal = system: RXF 393 renal
786-0 renal = system: 786-0 renal
SK-MEL-5 melanoma = system: SK-MEL-5 melanoma
OVCAR-4 ovarian = system: OVCAR-4 ovarian
SN12C renal = system: SN12C renal
HOP-92 NSCLC = system: HOP-92 NSCLC
SNB-19 CNS = system: SNB-19 CNS
NCI-H460 lung = system: NCI-H460 lung
SF-268 CNS = system: SF-268 CNS
MCF7 breast = system: MCF7 breast
HCT-116 colon = system: HCT-116 colon
PC-3 prostate = system: PC-3 prostate
SR leukemia = system: SR leukemia
SK-MEL-28 melanoma = system: SK-MEL-28 melanoma
HS 578T breast = system: HS 578T breast
CCRF-CEM leukemia = system: CCRF-CEM leukemia
UACC-62 melanoma = system: UACC-62 melanoma
NCI/ADR-RES ovarian = system: NCI/ADR-RES ovarian
MOLT-4 leukemia = system: MOLT-4 leukemia
TK-10 renal = system: TK-10 renal
HCT-15 colon = system: HCT-15 colon
UACC-257 melanoma = system: UACC-257 melanoma
CAKI-1 renal = system: CAKI-1 renal
SF-539 CNS = system: SF-539 CNS
K-562 leukemia = system: K-562 leukemia
NCI-H522 lung = system: NCI-H522 lung
BT-549 breast = system: BT-549 breast
T-47D breast = system: T-47D breast
MALME-3M melanoma = system: MALME-3M melanoma
LOX IMVI melanoma = system: LOX IMVI melanoma
HL-60(TB) leukemia = system: HL-60(TB) leukemia
DU-145 prostate = system: DU-145 prostate
HCC-2998 colon = system: HCC-2998 colon
COLO 205 colon = system: COLO 205 colon
M14 melanoma = system: M14 melanoma
SW-620 colon = system: SW-620 colon
U251 CNS = system: U251 CNS
SK-OV-3 ovarian = system: SK-OV-3 ovarian
ACHN renal = system: ACHN renal
OVCAR-5 ovarian = system: OVCAR-5 ovarian
IGROV1 ovarian = system: IGROV1 ovarian
UO-31 renal = system: UO-31 renal

Compound: Cc1ccc(-c2nc(NCCOCCOCCN)nc(N3CCN(c4ccccn4)CC3)n2)cc1
- GI50 (SF-295 CNS): 18.4 µM
- TGI (SF-295 CNS): 38.6 µM
- GI50 (SNB-75 CNS): 13.9 µM
- TGI (SNB-75 CNS): 27.4 µM
- GI50 (KM12 colon): 16.6 µM
- TGI (KM12 colon): 32.9 µM
- GI50 (SK-MEL-2 melanoma): 18 µM
- TGI (SK-MEL-2 melanoma): 35.9 µM
- GI50 (HT29 colon): 8.99 µM
- TGI (HT29 colon): 29.1 µM
- GI50 (OVCAR-8 ovarian): 17.8 µM
- TGI (OVCAR-8 ovarian): 37.5 µM
- GI50 (A549 NSCLC): 17.1 µM
- TGI (A549 NSCLC): 36.3 µM
- GI50 (RPMI-8226 leukemia): 10.6 µM
- TGI (RPMI-8226 leukemia): 32.8 µM
- GI50 (EKVX NSCLC): 15.8 µM
- TGI (EKVX NSCLC): 33 µM
- GI50 (NCI-H226 lung): 17.4 µM
- TGI (NCI-H226 lung): 34.3 µM
- GI50 (MDA-MB-231 breast): 14.1 µM
- TGI (MDA-MB-231 breast): 29.8 µM
- GI50 (NCI-H23 lung): 16.4 µM
- TGI (NCI-H23 lung): 32 µM
- GI50 (OVCAR-3 ovarian): 16.9 µM
- TGI (OVCAR-3 ovarian): 31.2 µM
- GI50 (MDA-MB-435): 10.5 µM
- TGI (MDA-MB-435): 30.2 µM
- GI50 (A498 renal): 5.94 µM
- TGI (A498 renal): 21.7 µM
- GI50 (HOP-62 NSCLC): 16.7 µM
- TGI (HOP-62 NSCLC): 31.4 µM
- GI50 (RXF 393 renal): 13 µM
- TGI (RXF 393 renal): 28.2 µM
- GI50 (786-0 renal): 12.4 µM
- TGI (786-0 renal): 26.8 µM
- GI50 (SK-MEL-5 melanoma): 11.8 µM
- TGI (SK-MEL-5 melanoma): 25.1 µM
- GI50 (OVCAR-4 ovarian): 14.7 µM
- TGI (OVCAR-4 ovarian): 29.3 µM
- GI50 (SN12C renal): 14 µM
- TGI (SN12C renal): 29.5 µM
- GI50 (HOP-92 NSCLC): 4.15 µM
- TGI (HOP-92 NSCLC): 19 µM
- GI50 (SNB-19 CNS): 16.9 µM
- TGI (SNB-19 CNS): 34.9 µM
- GI50 (NCI-H460 lung): 13.9 µM
- TGI (NCI-H460 lung): 29.9 µM
- GI50 (SF-268 CNS): 14.3 µM
- TGI (SF-268 CNS): 29.9 µM
- GI50 (MCF7 breast): 12.7 µM
- TGI (MCF7 breast): 26.9 µM
- GI50 (HCT-116 colon): 10 µM
- TGI (HCT-116 colon): 27.8 µM
- GI50 (PC-3 prostate): 15.5 µM
- TGI (PC-3 prostate): 31 µM
- GI50 (SR leukemia): 5.5 µM
- TGI (SR leukemia): 20.7 µM
- GI50 (SK-MEL-28 melanoma): 6.04 µM
- TGI (SK-MEL-28 melanoma): 12.4 µM
- GI50 (HS 578T breast): 15.9 µM
- TGI (HS 578T breast): 42.3 µM
- GI50 (CCRF-CEM leukemia): 14.1 µM
- TGI (CCRF-CEM leukemia): 37.1 µM
- GI50 (UACC-62 melanoma): 5.99 µM
- TGI (UACC-62 melanoma): 13.7 µM
- GI50 (NCI/ADR-RES ovarian): 15.3 µM
- TGI (NCI/ADR-RES ovarian): 31.1 µM
- GI50 (MOLT-4 leukemia): 15.8 µM
- TGI (MOLT-4 leukemia): 36 µM
- GI50 (TK-10 renal): 18.5 µM
- TGI (TK-10 renal): 34.9 µM
- GI50 (HCT-15 colon): 10.1 µM
- TGI (HCT-15 colon): 29.8 µM
- GI50 (UACC-257 melanoma): 6.85 µM
- TGI (UACC-257 melanoma): 15.5 µM
- GI50 (CAKI-1 renal): 16.5 µM
- TGI (CAKI-1 renal): 33.7 µM
- GI50 (SF-539 CNS): 16.8 µM
- TGI (SF-539 CNS): 35.1 µM
- GI50 (K-562 leukemia): 9.18 µM
- TGI (K-562 leukemia): 24.6 µM
- GI50 (NCI-H522 lung): 18.4 µM
- TGI (NCI-H522 lung): 37 µM
- GI50 (BT-549 breast): 14.1 µM
- TGI (BT-549 breast): 29.2 µM
- GI50 (T-47D breast): 13.7 µM
- TGI (T-47D breast): 29.1 µM
- GI50 (MALME-3M melanoma): 15.2 µM
- TGI (MALME-3M melanoma): 33.7 µM
- GI50 (LOX IMVI melanoma): 8.82 µM
- TGI (LOX IMVI melanoma): 25.9 µM
- GI50 (HL-60(TB) leukemia): 18.7 µM
- TGI (HL-60(TB) leukemia): 40.5 µM
- GI50 (DU-145 prostate): 16.6 µM
- TGI (DU-145 prostate): 31.1 µM
- GI50 (HCC-2998 colon): 8.01 µM
- TGI (HCC-2998 colon): 21.9 µM
- GI50 (COLO 205 colon): 6.89 µM
- TGI (COLO 205 colon): 14.2 µM
- GI50 (M14 melanoma): 5.52 µM
- TGI (M14 melanoma): 11.9 µM
- GI50 (SW-620 colon): 11 µM
- TGI (SW-620 colon): 29.2 µM
- GI50 (U251 CNS): 14.2 µM
- TGI (U251 CNS): 33 µM
- GI50 (SK-OV-3 ovarian): 19.1 µM
- TGI (SK-OV-3 ovarian): 35.6 µM
- GI50 (ACHN renal): 14.7 µM
- TGI (ACHN renal): 32.4 µM
- GI50 (OVCAR-5 ovarian): 16.9 µM
- TGI (OVCAR-5 ovarian): 32.9 µM
- GI50 (IGROV1 ovarian): 19.4 µM
- TGI (IGROV1 ovarian): 38 µM
- GI50 (UO-31 renal): 13.3 µM
- TGI (UO-31 renal): 29.9 µM
